Experimental data: patent US12077503B2, “Substituted cyclic amides and their use as herbicides” (FMC CORPORATION, priority 2015, dated 2024)

Tests used:
Format in all cases: in vivo
Kochia (Kochia scoparia) [1] = experiment: Test A preemergence; conditions: Bassia scoparia, pre-emergence, 240 h; for pest or weed control at 125 g/ha: 125 g ai/ha, preemergence, 0 to 100 scale where 0 is no effect and 100 is complete control, read-out: Kochia plant response rating; for pest or weed control at 500 g/ha: 500 g ai/ha, Preemergence, visual injury vs untreated controls after approximately 10 d, read-out: Kochia plant response rating (0 to 100 scale where 0 is no effect and 100 is complete control)
Summary of the method: (§1)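 Visual injury scores from 0, no effect, to 100, complete control, were assigned versus untreated controls roughly 10 d after treatment in the greenhouse. Test chemicals, formulated with surfactant in a non-phytotoxic solvent, were applied to planted seeds as a preemergence soil spray or postemergence to one- to two-leaf plants 2 to 10 cm tall, in loam–sand soil.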

[2] = system: barnyardgrass (Echinochloa crus-galli); experiment: Test A preemergence; conditions: Echinochloa crus-galli, pre-emergence, 240 h; for pest or weed control at 125 g/ha: 125 g ai/ha, preemergence, 0 to 100 scale where 0 is no effect and 100 is complete control, read-out: Barnyardgrass plant response rating; for pest or weed control at 500 g/ha: 500 g ai/ha, Preemergence, visual injury vs untreated controls after approximately 10 d, read-out: Barnyardgrass plant response rating (0 to 100 scale where 0 is no effect and 100 is complete control)
Summary of the method: as §1

[3] = system: giant foxtail (Setaria faberii); experiment: Test A preemergence; conditions: Setaria faberi, pre-emergence, 240 h; for pest or weed control at 125 g/ha: 125 g ai/ha, preemergence, 0 to 100 scale where 0 is no effect and 100 is complete control, read-out: Foxtail, Giant plant response rating; for pest or weed control at 500 g/ha: 500 g ai/ha, Preemergence, visual injury vs untreated controls after approximately 10 d, read-out: Foxtail, Giant plant response rating (0 to 100 scale where 0 is no effect and 100 is complete control)
Summary of the method: as §1

[4] = system: pigweed (Amaranthus retroflexus); experiment: Test A preemergence; conditions: Amaranthus retroflexus, pre-emergence, 240 h; for pest or weed control at 125 g/ha: 125 g ai/ha, preemergence, 0 to 100 scale where 0 is no effect and 100 is complete control, read-out: Pigweed plant response rating; for pest or weed control at 500 g/ha: 500 g ai/ha, Preemergence, visual injury vs untreated controls after approximately 10 d, read-out: Pigweed plant response rating (0 to 100 scale where 0 is no effect and 100 is complete control)
[5] = system: ragweed (common ragweed, Ambrosia elatior); experiment: Test A preemergence; conditions: Ambrosia artemisiifolia, pre-emergence, 240 h; for pest or weed control at 125 g/ha: 125 g ai/ha, preemergence, 0 to 100 scale where 0 is no effect and 100 is complete control, read-out: Ragweed plant response rating; for pest or weed control at 500 g/ha: 500 g ai/ha, Preemergence, visual injury vs untreated controls after approximately 10 d, read-out: Ragweed plant response rating (0 to 100 scale where 0 is no effect and 100 is complete control)
Summary of the method: as §1

[6] = system: ryegrass, Italian (Italian ryegrass, Lolium multiflorum); experiment: Test A preemergence; conditions: Lolium multiflorum, pre-emergence, 240 h; for pest or weed control at 125 g/ha: 125 g ai/ha, preemergence, 0 to 100 scale where 0 is no effect and 100 is complete control, read-out: Ryegrass, Italian plant response rating; for pest or weed control at 500 g/ha: 500 g ai/ha, Preemergence, visual injury vs untreated controls after approximately 10 d, read-out: Ryegrass, Italian plant response rating (0 to 100 scale where 0 is no effect and 100 is complete control)
Summary of the method: as §1

[7] = system: Galium (catchweed bedstraw, Galium aparine); experiment: Test A postemergence; conditions: Galium, post-emergence, 240 h, 125 g ai/ha, postemergence, visual injury rating after approximately 10 d; read-out: Galium plant response rating (0 to 100 scale, 0 no effect, 100 complete control)
Summary of the method: as §1

Kochia (Kochia scoparia) [8] = experiment: Test A postemergence; conditions: Bassia scoparia, post-emergence, 240 h, 125 g ai/ha, postemergence, visual injury rating after approximately 10 d; read-out: Kochia plant response rating (0 to 100 scale, 0 no effect, 100 complete control)
Summary of the method: as §1

[9] = system: barnyardgrass (Echinochloa crus-galli); experiment: Test A postemergence; conditions: Echinochloa crus-galli, post-emergence, 240 h, 125 g ai/ha, postemergence, visual injury rating after approximately 10 d; read-out: Barnyardgrass plant response rating (0 to 100 scale, 0 no effect, 100 complete control)
Summary of the method: as §1

corn (Zea mays) = experiment: Test A postemergence; conditions: Zea mays, post-emergence, 240 h, 125 g ai/ha, postemergence, visual injury rating after approximately 10 d; read-out: Corn plant response rating (0 to 100 scale, 0 no effect, 100 complete control)
Summary of the method: as §1

[10] = system: pigweed (Amaranthus retroflexus); experiment: Test A postemergence; conditions: Amaranthus retroflexus, post-emergence, 240 h, 125 g ai/ha, postemergence, visual injury rating after approximately 10 d; read-out: Pigweed plant response rating (0 to 100 scale, 0 no effect, 100 complete control)
Summary of the method: as §1

[11] = system: barnyardgrass (Echinochloa crus-galli); experiment: Test B flooded paddy test; conditions: Echinochloa crus-galli, Flood, 250 g ai/ha; scale of 0 to 100 where 0 is no effect and 100 is complete control; read-out: Barnyardgrass plant response rating
Summary of the method: (§2)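 Response scored visually against untreated controls, 0 = no effect and 100 = complete control, 13–15 d after treatment in the greenhouse. Compounds added to paddy water held 3 cm above soil surface. Treatment given at 2-leaf stage.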

[12] = system: ducksalad (Heteranthera limosa); experiment: Test B flooded paddy test; conditions: Heteranthera limosa, Flood, 250 g ai/ha; scale of 0 to 100 where 0 is no effect and 100 is complete control; read-out: Ducksalad plant response rating
Summary of the method: as §2

rice (Oryra sativa) = experiment: Test B flooded paddy test; conditions: Oryza sativa, Flood, 250 g ai/ha; scale of 0 to 100 where 0 is no effect and 100 is complete control; read-out: Rice plant response rating
Summary of the method: as §2

[13] = system: sedge, umbrella (small-flower umbrella sedge, Cyperus difformis); experiment: Test B flooded paddy test; conditions: Cyperus difformis, Flood, 250 g ai/ha; scale of 0 to 100 where 0 is no effect and 100 is complete control; read-out: Sedge, Umbrella plant response rating
Summary of the method: as §2

| Structure (SMILES) | pest or weed control at 125 g/ha (Kochia (Kochia scoparia) [1]) | pest or weed control at 500 g/ha (Kochia (Kochia scoparia) [1]) | pest or weed control at 125 g/ha [2] | pest or weed control at 500 g/ha [2] | pest or weed control at 125 g/ha [3] | pest or weed control at 500 g/ha [3] | pest or weed control at 125 g/ha [4] | pest or weed control at 500 g/ha [4] | pest or weed control at 125 g/ha [5] | pest or weed control at 500 g/ha [5] | pest or weed control at 125 g/ha [6] | pest or weed control at 500 g/ha [6] | pest or weed control at 125 g/ha [7] | pest or weed control at 125 g/ha (Kochia (Kochia scoparia) [8]) | pest or weed control at 125 g/ha [9] | plant injury at 125 g/ha (corn (Zea mays)) | pest or weed control at 125 g/ha [10] | pest or weed control at 250 g/ha [11] | pest or weed control at 250 g/ha [12] | pest or weed control at 250 g/ha (rice (Oryra sativa)) | other results |
| --- | --- | --- | --- | --- | --- | --- | --- | --- | --- | --- | --- | --- | --- | --- | --- | --- | --- | --- | --- | --- | --- |
| Cc1cc(C)cc([C@H]2CNC(=O)[C@@H]2C(=O)Nc2cccc(F)c2F)c1 [Compound 889] | 80% | 80% | 90% | 90% | 90% | 90% | 0% | 0% | 30% | 40% | 30% | 40% | 30% | 0% | 70% | 20% | 0% | 60% | 75% | 0% | pest or weed control at 250 g/ha [13]: 0% |
| COc1c(F)ccc([C@H]2CNC(=O)[C@@H]2C(=O)Nc2ccc(F)c(F)c2F)c1Cl [Compound 890] | 40% | 90% | 90% | 90% | 90% | 90% | 30% | 50% | 0% | 0% | 50% | 70% | 50% | 60% | 90% | 20% | 0% | 60% | 90% | 0% | pest or weed control at 250 g/ha [13]: 0% |
| COc1c(F)ccc([C@H]2CNC(=O)[C@@H]2C(=O)Nc2ccccc2C(F)(F)F)c1Cl [Compound 891] | 0% | 20% | 60% | 80% | 80% | 90% | 0% | 0% | 0% | 0% | 0% | 30% | 30% | 0% | 50% | 20% | 0% | 0% | 100% | 20% | pest or weed control at 250 g/ha [13]: 0% |
| CN1C[C@H](c2cc(F)c(C(F)(F)F)c(F)c2)[C@@H](C(=O)Nc2ccccc2S(C)(=O)=O)C1=O [Compound 900] | 90% | 90% | 90% | 90% | 90% | 90% | 80% | 90% | 50% | 80% | 60% | 60% | 20% | 30% | 80% | 50% | 50% | 70% | 40% | 0% | pest or weed control at 250 g/ha [13]: 0% |
| CN1C[C@H](c2cc(F)c(C(F)(F)F)c(F)c2)[C@@H](C(=O)Nc2ccc(F)cc2F)C1=O [Compound 901] | 80% | 80% | 90% | 90% | 90% | 90% | 30% | 60% | 0% | 0% | 20% | 50% | 0% | 30% | 60% | 40% | 0% | 60% | 60% | 0% | pest or weed control at 250 g/ha [13]: 0% |
| CCOc1ccc([C@H]2CN(C)C(=O)[C@@H]2C(=O)Nc2ccc(F)cc2F)cc1 [Compound 905] | 10% | 90% | 70% | 90% | 90% | 90% | 0% | 0% | 0% | 0% | 0% | 0% | 0% | 0% | 70% | 0% | 0% | 0% | 0% | 0% | pest or weed control at 250 g/ha [13]: 0% |
